Experimental data published in US20070225371A1, “Dermatological composition containing alkyl ureas” (priority 2006, published 2007).

How the values were obtained:
[1] = molecular target: T1, RNase A (Bos taurus, UniProt P61823); assay: Thermal denaturation of protein RNase A in urea or 1-butyl urea solution (Poklar et al.); type: biochemical; settings: for 0.7 M of 1-butyl urea; estimated from temperature profiles of conformational transition of RNase A
T1 sequence (P61823 27-150): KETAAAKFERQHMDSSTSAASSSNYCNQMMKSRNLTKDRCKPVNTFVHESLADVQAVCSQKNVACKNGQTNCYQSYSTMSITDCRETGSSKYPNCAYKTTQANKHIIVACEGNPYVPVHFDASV
Text: In their thermal denaturation studies of protein RNase A in alkyl urea solutions, Poklar et al., “Thermodynamic Stability of Ribonuclease A in Alkylurea Solutions and Preferential Solvation Changes Accompanying its Thermal Denaturation: A Calorimetric and Spectroscopic Study” in Protein Science, 8:832-840 (1999) report that the thermal stability of RNase A in solution decreases with increasing concentrations of denaturants and the size of the hydrophobic group substituted on the urea molecule.
Based on the temperature profiles of conformational transition (denaturation) of protein RNase A in urea or in 1-butyl urea solution, it can be estimated that 0.7 M of 1-butyl urea is equivalent to about 3.5 M of urea in terms of their protein denaturing capability. These studies provide a general guideline on estimating relative keratolytic activity of urea vs. 1-butyl urea in a dermatological composition.

[2] = equal to about 36 to 42% by weight; cited from earlier work

Compound | urea concentration equivalent in protein denaturing capability [1] | concentration minimally needed to show any noticeable keratolytic or protein denaturing activity [2]
CCCCNC(N)=O [1-butyl urea] | about 3.5 M | –
NC(N)=O [urea] | – | 6 to 7 M
